Results as given in publication PMC12518693, “Potent Fluorescent Probe for Target‐Engagement Studies of Allosteric Pyruvate Kinase Modulators” (Angewandte Chemie (International Ed. in English), 2025).

What was measured:
HEK293 cells = experiment: Live-cell uptake by confocal microscopy; assay type: cell-based; conditions: live HEK293, 1 µM
Method: To investigate the cellular permeability of IV, we employed confocal microscopy to monitor the uptake of the tracer in live HEK293 cells over time. The tracer was added to live cells at a final concentration of 1 µM, and real‐time fluorescence intensity was recorded immediately after addition. A rapid increase in fluorescence was observed, reaching a stable plateau approximately 4 min after addition, indicating fast cellular uptake and […] (Figure 3a and Video S1).
Fluorescence intensity was then continuously monitored for 60 min. To assess potential fluorophore degradation, corrected total cell fluorescence (CTCF) was calculated at each time point (Figure S6). Fluorescence values from regions of interest (ROIs) were integrated and normalized cell area and background signals in the absence of tracer.
To attach HEK293 cells to the bottom of 24-well imaging plates (Ibidi 82427), a Cell-Tak adhesive mixture (Corning, 354240) was used. It was prepared with a mixture of sodium bicarbonate (75 g/L), sodium hydroxide (40 g/L) and Cell-Tak (2.03 g/L) at a volume ratio of 291:5:4. For each well, 500 μL of Cell-Tak mix was added and incubated at room temperature for 30 min. […] For analysing intracellular fluorescence and distribution of IV within HEK293 cells, Z-stack images (22 images) were acquired after 5, 15, 30 and 60 min of incubation across a physical depth of ~22 μm. […]

PKL = PKL (Homo sapiens, UniProt P30613); experiment: HepG2 PKM2 KO cell lysate PKL activity assay; conditions: HepG2 PKM2 KO cells, 48 h, mean ± SE n=3
PKL, sequence (P30613 1-543 isoform P30613-2): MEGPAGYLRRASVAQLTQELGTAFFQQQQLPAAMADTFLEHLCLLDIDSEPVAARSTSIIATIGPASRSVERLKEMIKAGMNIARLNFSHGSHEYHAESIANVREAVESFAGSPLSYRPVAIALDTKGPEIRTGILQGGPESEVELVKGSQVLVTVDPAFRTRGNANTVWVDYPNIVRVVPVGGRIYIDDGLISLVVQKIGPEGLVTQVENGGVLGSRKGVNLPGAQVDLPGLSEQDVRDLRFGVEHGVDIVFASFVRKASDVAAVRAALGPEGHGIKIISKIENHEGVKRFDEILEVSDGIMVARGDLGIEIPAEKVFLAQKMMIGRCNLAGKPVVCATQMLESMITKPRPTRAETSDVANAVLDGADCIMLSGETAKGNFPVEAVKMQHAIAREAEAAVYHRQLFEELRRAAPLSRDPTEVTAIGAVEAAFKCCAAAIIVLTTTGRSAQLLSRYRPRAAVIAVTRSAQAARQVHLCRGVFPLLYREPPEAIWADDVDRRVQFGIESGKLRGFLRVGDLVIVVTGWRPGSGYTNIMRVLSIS
Method: These predominantly express PKL.
HepG2 PKM2 KO cells (Synthego) were plated in 6 well plates at cell densities of 2 x 10^5 cells/well and incubated for 24 h at 37 °C and 5% CO2. Compounds were added to the cells in different concentrations (0.1, 1, 10 µM) and the cells were further incubated for 48 h. The control cells received DMSO as vehicle.
Cells were washed with PBS, lysed on ice with 200 µL/well PK assay buffer. […] Pyruvate kinase (PK) activity of the cell lysates (10 µg total protein) was analyzed by using the PK assay kit from abcam (ab83432) according to manufacturer´s instructions. The PKL activity in the cell lysates treated with the compounds was expressed as a percentage of the PK activity in the vehicle.

time to stable fluorescence plateau after addition (HEK293 cells): approximately 4 min
PKL activities (% of vehicle) 0.1 µM (PKL; 0.1 µM): 108 ± 3 % of vehicle
PKL activities (% of vehicle) 1 µM (PKL; 1 µM): 146 ± 4 % of vehicle
PKL activities (% of vehicle) 10 µM (PKL; 10 µM): 242 ± 7 % of vehicle
SMILES: CN(C)c1ccc(S(=O)(=O)c2ccc3c(=O)n(Cc4cc[nH]n4)ncc3c2)c2nonc12 [Compound IV, 2-((1H-Pyrazol-3-yl)methyl)-6-((7-(dimethylamino)benzo[c][1,2,5]oxadiazol-4-yl)sulfonyl)phthalazin-1(2H)-one]
